Experimental data published in patent US20100260753A1, “AMINOFLAVONE (NSC 686288) AND COMBINATIONS THEREOF FOR TREATING BREAST CANCER” (priority 2007, published 2010).
“And” between values parts separate entries of the source, which are not always exact repeats. Identical values can stand only once. Like-named read-outs stand apart in the source and are kept apart here.

Tests used:
MCF-7 TAM1 [1] = test: MTT proliferation assay, MCF-7 TAM1; format: cell-based, human
Method: (§1) FIG. 2B depicts an MTT assay (10 days) comparing the sensitivity of parental MCF-7 to aminoflavone and the tamoxifen resistant subclone MCF-7TAM1 to 4-OH tamoxifen (TAM) and aminoflavone respectively. Cells were grown in medium with charcoal-stripped fetal calf serum supplemented with 10 nM E2, estrogen. MCF-7 cells that have become resistant to tamoxifen by either selection (MCF-7TAM1, FIG. 2B), or genetic manipulation (MCF-7Her2-18, Table 1), remain sensitive to aminoflavone. An understanding of how MCF-7 DF203r and MDA-MB-231 differ from MCF-7 in the dynamics and distribution of their AhR and AhR associated signaling complexes may allow the clarification of the basis for aminoflavone sensitivity and resistance.
(§2) MCF-7Her2-18 is a variant of MCF-7 over-expressing the Her2/neu oncoprotein. As a result, it is resistant to Herceptin® (Shou et al. 2004 “Mechanisms of tamoxifen resistance: increased estrogen receptor-HER2/neu cross-talk in ER/HER2-positive breast cancer.” J Nat Cancer Inst 96: 926-35) and tamoxifen. […] (1999 “A multidrug resistance transporter from human MCF-7 breast cancer cells.” Proc Natl Acad Sci USA. 95: 15665-70.) The IC50s (16-20 nM) and IC100s of aminoflavone (˜300 nM) were nearly identical in MCF-7Her2-18 and parental MCF-7 cells (See Table 1, below). In MCF-7TAM1 cells, which were serum starved and then treated for 10 days with E2 alone, 4-OH-tamoxifen plus E2, and aminoflavone plus E2, the concentration of 4-OH-tamoxifen causing growth inhibition was >10 μM.
(§3) Table 1 below summarizes the results of the MTT (methyl tetrazolium) tests that were performed to assay cell growth in a panel breast cell lines and their characteristics. Both, MCF-7Her2-18 and MCF-7TAM1 express estrogen receptor. […] The ER(−) cells MDA-MB-231 and MCF10A with nuclear AhR are several log-fold less sensitive to aminoflavone (Table 1, FIG. 4). These observations confirm that aminoflavone is valuable in patients who have lost clinical benefit from estrogen receptor antagonists. […]

MCF-7 cells = test: aminoflavone combination with estrogen receptor antagonists in MCF-7 cells; format: cell-based, human; conditions: administered with aminoflavone (FIG. 9)
Method: To examine the role of estrogen receptor in aminoflavone sensitivity, the inventors combined aminoflavone with a fixed concentration (100 nM) of the “pure” antiestrogen Faslodex® in MCF-7 cells.

MCF-7 [2] = test: MTT proliferation assay, MCF-7; format: cell-based, human
Method: (§4) FIG. 2A depicts in vitro MTT proliferation assay (5 days) showing aminoflavone activity in ER(+) and ER(−) breast cancer cell lines.
as §1
(§5) Table 1 below summarizes the results of the MTT (methyl tetrazolium) tests that were performed to assay cell growth in a panel breast cell lines and their characteristics. Both, MCF-7Her2-18 and MCF-7TAM1 express estrogen receptor. […] The ER(−) cells MDA-MB-231 and MCF10A with nuclear AhR are several log-fold less sensitive to aminoflavone (Table 1, FIG. 4). These observations confirm that aminoflavone is valuable in patients who have lost clinical benefit from estrogen receptor antagonists.
(§6) The inhibitory concentrations 50% (IC50) and 100% (IC100) listed in Table 1 represent the mean of three independent experiments. The estrogen receptor and AhR assays were performed three times.

MCF-7 HER2-18 [3] = test: MTT proliferation assay, MCF-7 HER2-18; format: cell-based, human; conditions: mean of three independent experiments
Method: as §1, §2, §3

T47D [4] = test: MTT proliferation assay, T47D; format: cell-based, human
Method: as §4, §5, §6

MDA-MB-231 [5] = test: MTT proliferation assay, MDA-MB-231; format: cell-based, human
Method: as §4, §5, §6

MCF10A [6] = test: MTT proliferation assay, MCF10A; format: cell-based, human
Method: as §5, §6

MCF-7 [7] = test: γ-H2AX foci induction, MCF-7; format: cell-based, human; conditions: IC50 concentrations, 24 hrs after exposure
From the text: (§7) Previous studies have reported that the occurrence of foci of phosphorylated γ-H2AX is indicative of the cellular response to aminoflavone in MCF-7 cells (Meng et al.). γ-H2AX phosphorylation is an early indicator of DNA double strand breaks and thus, induction of DNA-damage response in cells.
(§8) Phosphorylation of the histone variant γ-H2AX is a rapid and sensitive response to DNA double strand breaks. Aminoflavone induces γ-H2AX foci in drug sensitive MCF-7 and MCF-7TAM1 cells at IC50 concentrations 24 hrs after exposure, but not in aminoflavone resistant MDA-MB-231 breast cancer cells. γ-H2AX was detected by using a FITC-labeled anti-mouse secondary antibody (green) and its nuclear expression is shown by co-localization with the nuclear stain DAPI (blue). AhR was detected with a TRITC-labeled (red) secondary antibody.

MCF-7 HER2-18 [8] = test: γ-H2AX foci induction, MCF-7 HER2-18; format: cell-based, human
MCF-7 TAM1 [9] = test: γ-H2AX foci induction, MCF-7 TAM1; format: cell-based, human; conditions: IC50 concentrations, 24 hrs after exposure
From the text: as §7, §8

T47D [10] = test: γ-H2AX foci induction, T47D; format: cell-based, human
MDA-MB-231 [11] = test: γ-H2AX foci induction, MDA-MB-231; format: cell-based, human
From the text: as §7, §8

MCF10A [12] = test: γ-H2AX foci induction, MCF10A; format: cell-based, human
MCF-7DF203r = test: MTT proliferation assay (5 days), MCF-7DF203r; format: cell-based, human; conditions: MTT 5 days; MCF-7 subclone with acquired resistance to benzothiazoles (DF203)
From the text: (Loaiza-Pérez et al.; Leong et al.) Isogenic subclones of MCF-7 resistant to the BZ DF203F (MCF-7DF203r), tamoxifen (MCF-7TAM1, MCF-7Her2-18) and Herceptin® (MCF-7Her2-18) were included.
as §4

ER+MDA-MB-231 cells = test: aminoflavone sensitivity of MDA-MB-231 stably transfected with human estrogen receptor-α; format: cell-based
Hs578T = test: aminoflavone sensitivity of Hs578T (FIGS. 6A and 6B); format: cell-based, human
LTLC = test: growth inhibition in hormone refractory LTLC (FIGS. 5A and 5B); format: cell-based, human; conditions: LTLC hormone refractory cell line
MCF-7 xenografts = conditions: 120 mg/kg intraperitoneally, 5 days per week; cited from earlier work
NCI 60 cell line = conditions: "resistant" cell lines; cited from earlier work
[13] = MCF-7, MTT, mean of three independent experiments

SMILES: CC/C(=C(\c1ccc(O)cc1)c1ccc(OCCN(C)C)cc1)c1ccccc1 [4-OH-tamoxifen, reference compound]
- concentration causing growth inhibition (MCF-7 TAM1 [1]; MCF-7TAM1, serum starved, 10 days, plus E2): > 10 µM

SMILES: C[C@]12CC[C@@H]3c4ccc(O)cc4C[C@@H](CCCCCCCCC[S+]([O-])CCCC(F)(F)C(F)(F)F)[C@H]3[C@@H]1CC[C@@H]2O (stereo partly drawn) [Faslodex®, fulvestrant]
- cell growth inhibition compared to aminoflavone alone (MCF-7 cells): inhibited more greatly

SMILES: Cc1c(F)c(N)c2c(=O)cc(-c3ccc(N)c(F)c3)oc2c1F [aminoflavone]
- IC50 (MCF-7 [2]; Homo sapiens, MCF7, MCF-7, MTT, mean of three independent experiments): 16 to 20 nM
- sensitivity to aminoflavone (MCF-7 [2]; MCF-7, MTT 5 days (FIG. 2A)): pronounced susceptibility
- IC50 (MCF-7 [2]; [13]): 16 nM
- IC100 (MCF-7 [2]; [13]): ~300 nM
- IC50 (MCF-7 HER2-18 [3]; Homo sapiens): 16 to 20 nM
- IC50 (MCF-7 HER2-18 [3]): 20 nM
- IC100 (MCF-7 HER2-18 [3]): ~300 nM and 375 nM
- IC50 (MCF-7 TAM1 [1]; Homo sapiens, MCF7:TAM1, 240 h, MCF-7 TAM1, MTT 10 days, plus E2): 550 nM
- IC100 (MCF-7 TAM1 [1]; MCF-7 TAM1, MTT): 2 µM
- IC50 (T47D [4]; Homo sapiens, MTT): 14 nM
- IC100 (T47D [4]; MTT): 20 nM
- sensitivity to aminoflavone (T47D [4]; MTT 5 days (FIG. 2A)): pronounced susceptibility
- IC100 (MDA-MB-231 [5]; MTT): >100 µM
- sensitivity to aminoflavone (MDA-MB-231 [5]; MTT 5 days (FIG. 2A)): refractoriness
- IC50 (MCF10A [6]): 3000 nM
- IC100 (MCF10A [6]): 9 µM
- IC50 (MCF10A [6]; Homo sapiens, MCF-10A): 3000 to 25000 nM
- γ-H2AX Focl (MCF-7 [7]): induces and yes
- γ-H2AX Focl (MCF-7 HER2-18 [8]): yes
- γ-H2AX Focl (MCF-7 TAM1 [9]): induces and yes
- γ-H2AX Focl (T47D [10]): yes
- γ-H2AX Focl (MDA-MB-231 [11]): no
- γ-H2AX Focl (MCF10A [12]): no
- sensitivity to aminoflavone (MCF-7DF203r): essentially completely cross-resistant
- sensitivity compared to parental and vector transfected cells (ER+MDA-MB-231 cells; ER+MDA-MB-231 vs parental and vector transfected cells): 5 times
- IC50 (ER+MDA-MB-231 cells; MDA-MB-231 stably transfected with human estrogen receptor-α): 5000 nM
- sensitivity to aminoflavone (Hs578T): resistant
- tumor growth inhibition (LTLC): inhibits tumor growth
- tumor growth inhibition (MCF-7 xenografts): 85 % of control
- total growth inhibition (TGI) (NCI 60 cell line): ≥ 10000 nM

SMILES: CC/C(=C(\c1ccccc1)c1ccc(OCCN(C)C)cc1)c1ccccc1 [tamoxifen]
- cell growth inhibition compared to aminoflavone alone (MCF-7 cells): inhibited more greatly
